From patent publication US11925617B2 (priority 2005, dated 2024)

Experiments:
HT29 cells = assay type: cell-based, Human
HL60 bcl-2 cells [1] = experiment: cells; assay type: cell-based
bcl-2 protein = assay type: cell-based
HL60 neo cells [2] = experiment: cells; assay type: cell-based; conditions: Homo sapiens, HL-60, 240 h, read-out: inhibition of cell growth
SCC VII cells = assay type: cell-based, murine
HL60 bcl-2 cells [3] = assay type: cell-based
HL60 neo cells [4] = assay type: cell-based

O=C(CBr)N1CC([N+](=O)[O-])([N+](=O)[O-])C1 [ABDNAZ]
intracellular ROS generation, combined treatment of ABDNAZ and radiation (HT29 cells): synergistically induced intracellular ROS generation
production of ROS (HT29 cells): dose, time and cell line dependent
time of peak ROS production (HT29 cells): 24 h
sensitivity of HL60 bcl-2 cells compared with neo cells (HL60 bcl-2 cells [1]): as sensitive as neo cells
inhibition at 5 µM (HL60 bcl-2 cells [1]; Homo sapiens, HL-60, 240 h, read-out: inhibition of cell growth): > 95%
bcl-2 protein expression (bcl-2 protein): inhibited bcl-2 protein expression in both neo and bcl-2 cells in a dose-dependent manner
inhibition at 5 µM (HL60 neo cells [2]): > 95%
intracellular ROS generation, combined treatment of ABDNAZ and radiation (SCC VII cells): synergistically induced intracellular ROS generation
levels of ROS compared with HT29 cells (SCC VII cells): significantly higher than that induced in HT29 cells
production of ROS (SCC VII cells): dose, time and cell line dependent
time of peak ROS production (SCC VII cells): 2 h
apoptosis (HL60 bcl-2 cells [3]): 78%
apoptotic cell death, peak (HL60 bcl-2 cells [3]): ~40%
apoptosis (HL60 neo cells [4]): 95%
apoptotic cell death, peak (HL60 neo cells [4]): ~40%
